# Measurements reported in patent publication US9999619B2, “Piperidin-4-yl azetidine derivatives as JAK1 inhibitors” (Incyte Corporation, priority 2010, dated 2018).
# Structures can show the parent of a compound that is named as a salt.
# Tests used:
# Assay type in all cases: biochemical
# [1] = biological target: human JAK1 (a.a. 837-1142); test: In vitro JAK kinase assay (HTRF, phosphorylation of a biotinylated peptide), JAK1; settings: ratio of JAK2 IC50 to JAK1 IC50, measured at 1 mM ATP
# How it was run: (§1)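 N-terminally His-tagged catalytic domains, baculovirus-expressed in insect cells and purified, were used as enzyme. Reactions ran 1 hr at room temperature and were stopped with a mix of 45 mM EDTA, 300 nM SA-APC and 6 nM Eu-Py20. The HTRF signal was read after 40 min of antibody binding.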
# [2] = biological target: human JAK1 (a.a. 837-1142) (Homo sapiens, UniProt P23458); test: as above; settings: measured at 1 mM ATP
# How it was run: as §1
# [3] = biological target: Jak2 (a.a. 828-1132) (Homo sapiens (Human), UniProt O60674); test: In vitro JAK kinase assay (HTRF, phosphorylation of a biotinylated peptide), JAK2; settings: measured at 1 mM ATP
# How it was run: as §1
# Chain of Jak2 (a.a. 828-1132) (O60674 828-1132): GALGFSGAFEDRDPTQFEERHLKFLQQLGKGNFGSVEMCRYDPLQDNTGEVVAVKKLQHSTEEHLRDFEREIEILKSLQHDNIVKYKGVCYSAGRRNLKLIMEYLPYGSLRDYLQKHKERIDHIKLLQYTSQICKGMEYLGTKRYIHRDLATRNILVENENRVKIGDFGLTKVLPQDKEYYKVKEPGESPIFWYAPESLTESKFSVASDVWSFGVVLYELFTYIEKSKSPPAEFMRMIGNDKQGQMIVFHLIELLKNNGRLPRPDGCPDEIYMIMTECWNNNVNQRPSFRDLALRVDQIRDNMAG
IC50 Ratio JAK2/JAK1 [1],IC50 [2],IC50 [3],Compound
67.3,≤ 5 nM,10 to 50 nM,"N#CCC1(n2cc(-c3ncnc4[nH]ccc34)cn2)CN(C2CCN(C(=O)c3cc(CN4CCC4)nc(C(F)(F)F)n3)CC2)C1 [Example 372, {1-(1-{[6-(azetidin-1-ylmethyl)-2-(trifluoromethyl)pyrimidin-4-yl]carbonyl}piperidin-4-yl)-3-[4-(7H-pyrrolo[2,3-d]pyrimidin-4-yl)-1H-pyrazol-1-yl]azetidin-3-yl}acetonitrile]"
36.8,≤ 5 nM,10 to 50 nM,"CCN(CC)Cc1cc(C(=O)N2CCC(N3CC(CC#N)(n4cc(-c5ncnc6[nH]ccc56)cn4)C3)CC2)nc(C(F)(F)F)n1 [Example 373, {1-(1-{[6-[(diethylamino)methyl]-2-(trifluoromethyl)pyrimidin-4-yl]carbonyl}piperidin-4-yl)-3-[4-(7H-pyrrolo[2,3-d]pyrimidin-4-yl)-1H-pyrazol-1-yl]azetidin-3-yl}acetonitrile]"
50,≤ 5 nM,10 to 50 nM,"CCN(C)Cc1cc(C(=O)N2CCC(N3CC(CC#N)(n4cc(-c5ncnc6[nH]ccc56)cn4)C3)CC2)nc(C(F)(F)F)n1 [Example 374, {1-(1-{[6-{[ethyl(methyl)amino]methyl}-2-(trifluoromethyl)pyrimidin-4-yl]carbonyl}piperidin-4-yl)-3-[4-(7H-pyrrolo[2,3-d]pyrimidin-4-yl)-1H-pyrazol-1-yl]azetidin-3-yl}acetonitrile]"
12.7,≤ 5 nM,10 to 50 nM,"CN(C)Cc1cc(C(=O)N2CCC(N3CC(CC#N)(n4cc(-c5ncnc6[nH]ccc56)cn4)C3)CC2)cc(C(F)F)c1 [Example 375, {1-(1-{3-(difluoromethyl)-5-[(dimethylamino)methyl]benzoyl}piperidin-4-yl)-3-[4-(7H-pyrrolo[2,3-d]pyrimidin-4-yl)-1H-pyrazol-1-yl]azetidin-3-yl}acetonitrile]"
35.7,≤ 5 nM,10 to 50 nM,"N#CCC1(n2cc(-c3ncnc4[nH]ccc34)cn2)CN(C2CCN(C(=O)c3cc(CN4CC[C@H](F)C4)nc(C(F)(F)F)n3)CC2)C1 [Example 377, {1-(1-{[6-{[(3S)-3-fluoropyrrolidin-1-yl]methyl}-2-(trifluoromethyl)pyrimidin-4-yl]carbonyl}piperidin-4-yl)-3-[4-(7H-pyrrolo[2,3-d]pyrimidin-4-yl)-1H-pyrazol-1-yl]azetidin-3-yl}acetonitrile (trifluoroacetate salt: 4 TFA)]"
32.7,≤ 5 nM,10 to 50 nM,"N#CCC1(n2cc(-c3ncnc4[nH]ccc34)cn2)CN(C2CCN(C(=O)c3cc(CN4CC[C@@H](F)C4)nc(C(F)(F)F)n3)CC2)C1 [Example 378, {1-(1-{[6-{[(3R)-3-fluoropyrrolidin-1-yl]methyl}-2-(trifluoromethyl)pyrimidin-4-yl]carbonyl}piperidin-4-yl)-3-[4-(7H-pyrrolo[2,3-d]pyrimidin-4-yl)-1H-pyrazol-1-yl]azetidin-3-yl}acetonitrile (trifluoroacetate salt: 4 TFA)]"
36.9,≤ 5 nM,50 to 100 nM,"N#CCC1(n2cc(-c3ncnc4[nH]ccc34)cn2)CN(C2CCN(C(=O)c3cc(CN4CCC(F)(F)C4)nc(C(F)(F)F)n3)CC2)C1 [Example 379, {1-(1-{[6-[(3,3-difluoropyrrolidin-1-yl)methyl]-2-(trifluoromethyl)pyrimidin-4-yl]carbonyl}piperidin-4-yl)-3-[4-(7H-pyrrolo[2,3-d]pyrimidin-4-yl)-1H-pyrazol-1-yl]azetidin-3-yl}acetonitrile (trifluoroacetate salt: 4 TFA)]"
20,≤ 5 nM,10 to 50 nM,"N#CCC1(n2cc(-c3ncnc4[nH]ccc34)cn2)CN(C2CCN(C(=O)c3cc(CO)nc(C(F)(F)F)n3)CC2)C1 [Example 381, {1-(1-{[6-(hydroxymethyl)-2-(trifluoromethyl)pyrimidin-4-yl]carbonyl}piperidin-4-yl)-3-[4-(7H-pyrrolo[2,3-d]pyrimidin-4-yl)-1H-pyrazol-1-yl]azetidin-3-yl}acetonitrile]"
26.7,≤ 5 nM,10 to 50 nM,"CC(C)NCc1cc(C(=O)N2CCC(N3CC(CC#N)(n4cc(-c5ncnc6[nH]ccc56)cn4)C3)CC2)nc(C(F)(F)F)n1 [Example 382, {1-(1-{[6-[(isopropylamino)methyl]-2-(trifluoromethyl)pyrimidin-4-yl]carbonyl}piperidin-4-yl)-3-[4-(7H-pyrrolo[2,3-d]pyrimidin-4-yl)-1H-pyrazol-1-yl]azetidin-3-yl}acetonitrile]"
30.5,≤ 5 nM,10 to 50 nM,"CCNCc1cc(C(=O)N2CCC(N3CC(CC#N)(n4cc(-c5ncnc6[nH]ccc56)cn4)C3)CC2)nc(C(F)(F)F)n1 [Example 383, {1-(1-{[6-[(ethylamino)methyl]-2-(trifluoromethyl)pyrimidin-4-yl]carbonyl}piperidin-4-yl)-3-[4-(7H-pyrrolo[2,3-d]pyrimidin-4-yl)-1H-pyrazol-1-yl]azetidin-3-yl}acetonitrile]"
29.6,≤ 5 nM,50 to 100 nM,"COCCN(C)Cc1cc(C(=O)N2CCC(N3CC(CC#N)(n4cc(-c5ncnc6[nH]ccc56)cn4)C3)CC2)nc(C(F)(F)F)n1 [Example 384, {1-(1-{[6-{[(2-methoxyethyl)(methyl)amino]methyl}-2-(trifluoromethyl)pyrimidin-4-yl]carbonyl}piperidin-4-yl)-3-[4-(7H-pyrrolo[2,3-d]pyrimidin-4-yl)-1H-pyrazol-1-yl]azetidin-3-yl}acetonitrile]"
28.9,≤ 5 nM,50 to 100 nM,"CN(CCCO)Cc1cc(C(=O)N2CCC(N3CC(CC#N)(n4cc(-c5ncnc6[nH]ccc56)cn4)C3)CC2)nc(C(F)(F)F)n1 [Example 385, {1-(1-{[6-{[(3-hydroxypropyl)(methyl)amino]methyl}-2-(trifluoromethyl)pyrimidin-4-yl]carbonyl}piperidin-4-yl)-3-[4-(7H-pyrrolo[2,3-d]pyrimidin-4-yl)-1H-pyrazol-1-yl]azetidin-3-yl}acetonitrile]"
7.7,≤ 5 nM,10 to 50 nM,"CCCOC(=O)N1CCC(N2CC(CC#N)(n3cc(-c4ncnc5[nH]ccc45)cn3)C2)CC1 [Example 386, Propyl 4-{3-(cyanomethyl)-3-[4-(7H-pyrrolo[2,3-d]pyrimidin-4-yl)-1H-pyrazol-1-yl]azetidin-1-yl}piperidine-1-carboxylate]"
9.7,≤ 5 nM,10 to 50 nM,"N#CCC1(n2cc(-c3ncnc4[nH]ccc34)cn2)CN(C2CCN(C(=O)OCC3CCC3)CC2)C1 [Example 387, Cyclobutylmethyl 4-{3-(cyanomethyl)-3-[4-(7H-pyrrolo[2,3-d]pyrimidin-4-yl)-1H-pyrazol-1-yl]azetidin-1-yl}piperidine-1-carboxylate]"
7.6,5 to 20 nM,10 to 50 nM,"CCOC(=O)N1CCC(N2CC(CC#N)(n3cc(-c4ncnc5[nH]ccc45)cn3)C2)CC1 [Example 388, ethyl 4-{3-(cyanomethyl)-3-[4-(7H-pyrrolo[2,3-d]pyrimidin-4-yl)-1H-pyrazol-1-yl]azetidin-1-yl}piperidine-1-carboxylate]"
6.5,≤ 5 nM,10 to 50 nM,"N#CCC1(n2cc(-c3ncnc4[nH]ccc34)cn2)CN(C2CCN(C(=O)OCc3ccccc3)CC2)C1 [Example 389, benzyl 4-{3-(cyanomethyl)-3-[4-(7H-pyrrolo[2,3-d]pyrimidin-4-yl)-1H-pyrazol-1-yl]azetidin-1-yl}piperidine-1-carboxylate]"
8.3,≤ 5 nM,10 to 50 nM,"CC(C)COC(=O)N1CCC(N2CC(CC#N)(n3cc(-c4ncnc5[nH]ccc45)cn3)C2)CC1 [Example 390, isobutyl 4-{3-(cyanomethyl)-3-[4-(7H-pyrrolo[2,3-d]pyrimidin-4-yl)-1H-pyrazol-1-yl]azetidin-1-yl}piperidine-1-carboxylate]"
10.6,5 to 20 nM,50 to 100 nM,"N#CCC1(n2cc(-c3ncnc4[nH]ccc34)cn2)CN(C2CCN(C(=O)OCC3CC3)CC2)C1 [Example 391, cyclopropylmethyl 4-{3-(cyanomethyl)-3-[4-(7H-pyrrolo[2,3-d]pyrimidin-4-yl)-1H-pyrazol-1-yl]azetidin-1-yl}piperidine-1-carboxylate]"
5.6,5 to 20 nM,10 to 50 nM,"CC1(COC(=O)N2CCC(N3CC(CC#N)(n4cc(-c5ncnc6[nH]ccc56)cn4)C3)CC2)CC1 [Example 392, (1-methylcyclopropyl)methyl 4-{3-(cyanomethyl)-3-[4-(7H-pyrrolo[2,3-d]pyrimidin-4-yl)-1H-pyrazol-1-yl]azetidin-1-yl}piperidine-1-carboxylate]"
7.1,≤ 5 nM,10 to 50 nM,"N#CCC1(n2cc(-c3ncnc4[nH]ccc34)cn2)CN(C2CCN(C(=O)OCc3ccc(F)cc3F)CC2)C1 [Example 393, 2,4-difluorobenzyl 4-{3-(cyanomethyl)-3-[4-(7H-pyrrolo[2,3-d]pyrimidin-4-yl)-1H-pyrazol-1-yl]azetidin-1-yl}piperidine-1-carboxylate]"
11.1,5 to 20 nM,50 to 100 nM,"N#CCC1(n2cc(-c3ncnc4[nH]ccc34)cn2)CN(C2CCN(C(=O)OCc3ccc(F)c(F)c3)CC2)C1 [Example 394, 3,4-difluorobenzyl 4-{3-(cyanomethyl)-3-[4-(7H-pyrrolo[2,3-d]pyrimidin-4-yl)-1H-pyrazol-1-yl]azetidin-1-yl}piperidine-1-carboxylate]"
